This note sets out measurements from the PolyMetriX glass transition set.

± gives the standard deviation of the reports.

`*/C(=C/c1cc(OC)c(/C=C(\c2ccc(F)cc2)c2ccc3cc(*)ccc3c2)cc1OC)c1ccc(F)cc1` (repeat unit) gave a glass transition temperature of 208.00 °C.

`*/C(=C/c1ccc(/C=C(\c2ccccc2)c2ccc(-c3ccc(*)cc3)cc2)cc1)c1ccccc1` (repeat unit) yielded a glass transition temperature of 220.00 °C.

Regarding `*/C(C#N)=C/c1cc(OCCCCCCCC)c(/C=C(\C#N)c2cc(OCCCCCCCC)c(*)cc2OC)cc1OC` (repeat unit), the glass transition temperature amounted to 174.00 °C.

`*/C(C#N)=C/c1cc(OCCCCCCCCCC)c(/C=C(\C#N)c2cc(OCCCCCCCCCC)c(*)cc2OC)cc1OC` (repeat unit) registered a glass transition temperature of 198.00 °C.

`*/C=C(\C#N)C(=O)OCCCCCCCCCCOC(=O)/C(C#N)=C/c1ccc2c(c1)c1cc(*)ccc1n2CCCCCCCCCCCCCC` (repeat unit) yielded a glass transition temperature of 35.00 °C.

For the compound `*/C=C/CCCCCC*` (repeat unit), the glass transition temperature was -78.00 °C.

Compound `*/C=C/CCCCCCCCCC*` (repeat unit) came in with a glass transition temperature of -53.00 °C.

For `*C(*)(F)Cl` (repeat unit), the glass transition temperature is 77.00 °C.

Regarding `*C(*)C(=O)OCC` (repeat unit), the glass transition temperature came to 13.50 °C.

On to `*C(=O)c1ccc2c(c1)C(=O)N(CC1(C)CC(N3C(=O)c4ccc(*)cc4C3=O)CC(C)(C)C1)C2=O` (repeat unit), for which the glass transition temperature amounted to 275.00 °C.

Take `*C(=O)c1ccc2c(c1)C(=O)N(c1ccc(C(=O)c3cccc(N4C(=O)c5ccc(*)cc5C4=O)c3)cc1)C2=O` (repeat unit): the glass transition temperature is 282.00 ± 3 °C.

In turn, `*C(=O)c1ccc2c(c1)C(=O)N(c1cccc(N3C(=O)c4ccc(*)cc4C3=O)c1)C2=O` (repeat unit) showed a glass transition temperature of 300.00 ± 9 °C.

`*C(F)(F)C(*)(F)C(F)(F)F` (repeat unit) displayed a glass transition temperature of 158.50 °C.

Regarding `*C(F)(F)C(*)(F)OC(F)(F)C(F)(F)C(F)(F)C(F)(F)F` (repeat unit), the glass transition temperature was -10.00 °C.

`*C(F)(F)C(*)(F)OC(F)C(F)F` (repeat unit) showed a glass transition temperature of 35.00 °C.

The compound `*C(F)(F)C(*)(OC(F)(F)F)OC(F)(F)F` (repeat unit) showed a glass transition temperature of -60.00 °C.

`*C(F)(F)C1(*)OC(F)(F)C(F)(C(F)(F)F)O1` (repeat unit) registered a glass transition temperature of 135.00 °C.

With `*C(F)(F)C1(*)OC(F)(F)C(F)(F)O1` (repeat unit), the glass transition temperature turned out to be 108.00 °C.

The compound `*C(F)(F)C1(F)C(F)(F)C(*)(F)C(F)(F)C(F)(Cl)C1(F)F` (repeat unit) yielded a glass transition temperature of 147.00 °C.

For `*C(F)(F)C1(F)C(F)(F)C(*)(F)C(F)(F)C(F)(F)C(F)(F)C1(F)F` (repeat unit), the glass transition temperature was determined as 198.00 °C.

`*C(F)(F)C1(F)C(F)(F)C(*)(F)C(F)(F)C(F)(F)C1(F)F` (repeat unit) showed a glass transition temperature of 101.00 °C.

`*C(F)C(*)(F)F` (repeat unit) displayed a glass transition temperature of 31.5 °C.

Compound `*C(F)C(*)C(F)(F)F` (repeat unit) yielded a glass transition temperature of 87.00 °C.

For the compound `*C([2H])([2H])C(*)([2H])C([2H])([2H])[2H]` (repeat unit), the glass transition temperature stood at 0.00 °C.

Turning to `*C1(C)CC(*)(C)C(=O)N(C)C1=O` (repeat unit), the glass transition temperature turned out to be 170.00 °C.

For `*C1C(*)C2CC1C(C(=O)OCC1CC3CCC1C3)C2C(=O)OCC1CC2CCC1C2` (repeat unit), the glass transition temperature turned out to be 320.00 °C.

Turning to `*C1C(*)C2CC1C(C(=O)OCCC1CC3CCC1C3)C2C(=O)OCCC1CC2CCC1C2` (repeat unit), the glass transition temperature is 260.00 °C.

`*C1C(*)C2CC1C(C(=O)OCCCc1ccccc1)C2C(=O)OCCCc1ccccc1` (repeat unit) had a glass transition temperature of 200.00 °C.

The compound `*C1C(*)C2CC1C(C(=O)OCCc1ccccc1)C2C(=O)OCCc1ccccc1` (repeat unit) had a glass transition temperature of 254.00 °C.

`*C1C(=O)N(C(C)(C)C)C(=O)C1*` (repeat unit) had a glass transition temperature of 195.00 °C.

Compound `*C1C(=O)N(C(C)CC)C(=O)C1*` (repeat unit) registered a glass transition temperature of 205.00 °C.

In the case of `*C1C(=O)N(CCCOc2ccc(-c3ccc(C#N)cc3)cc2)C(=O)C1*` (repeat unit), the glass transition temperature is 130.00 °C.

The compound `*C1C(=O)N(CCOc2ccc(-c3ccc(C#N)cc3)cc2)C(=O)C1*` (repeat unit) showed a glass transition temperature of 150.00 °C.

Take `*C1C(=O)N(c2c(CC)cccc2CC)C(=O)C1*` (repeat unit): the glass transition temperature came out at 288.00 °C.

`*C1C(=O)N(c2cc(Br)c(O[Si](C)(C)C(C)(C)C)c(Br)c2)C(=O)C1*` (repeat unit) registered a glass transition temperature of 164.00 °C.

For the compound `*C1C(=O)N(c2cc(Br)c(O[Si](CC)(CC)CC)c(Br)c2)C(=O)C1*` (repeat unit), the glass transition temperature came out at 160.00 °C.

With `*C1C(=O)N(c2cc(Br)c(O[Si](c3ccccc3)(c3ccccc3)c3ccccc3)c(Br)c2)C(=O)C1*` (repeat unit), the glass transition temperature was determined as 179.00 °C.

On to `*C1C(=O)N(c2ccc(O[Si](C)(C)C(C)(C)C)cc2)C(=O)C1*` (repeat unit), for which the glass transition temperature was 169.00 °C.

On to `*C1C(=O)N(c2ccc(O[Si](c3ccccc3)(c3ccccc3)c3ccccc3)cc2)C(=O)C1*` (repeat unit), for which the glass transition temperature worked out at 183.00 °C.

Take `*C1C(=O)N(c2ccccc2C(=O)OCC)C(=O)C1*` (repeat unit): the glass transition temperature amounted to 230.00 °C.

In turn, `*C1C(=O)N(c2ccccc2C(=O)OCCCC)C(=O)C1*` (repeat unit) yielded a glass transition temperature of 181.00 °C.

With `*C1C2CC(C1*)C([Si](C)(C)C)C2` (repeat unit), the glass transition temperature came out at 303.00 °C.

`*C1C2CC(CCCCCCCCC(=O)OCC)C(C2)C1*` (repeat unit) had a glass transition temperature of 134.00 °C.

The compound `*C1CCC(CC2CCC(N3C(=O)C4C5C=CC(C6C(=O)N(*)C(=O)C56)C4C3=O)CC2)CC1` (repeat unit) came in with a glass transition temperature of 239.00 °C.

`*C1CCCC(S(*)(=O)=O)C1` (repeat unit) gave a glass transition temperature of 108.00 °C.

Turning to `*C1CCCCC1S(*)(=O)=O` (repeat unit), the glass transition temperature amounted to 77.00 °C.

For `*C1Cc2ccccc2C1*` (repeat unit), the glass transition temperature was 188.50 °C.

In the case of `*C1OC(C(F)(F)F)(C(F)(F)F)OC1(*)F` (repeat unit), the glass transition temperature was 256.00 °C.

On to `*C1OCOC(C(*)(F)F)C1(F)F` (repeat unit), for which the glass transition temperature was determined as 125.00 °C.

In the case of `*C1Oc2ccccc2C1*` (repeat unit), the glass transition temperature turned out to be 65.20 °C.

In turn, `*CC(c1ccccc1)C1C(=O)OC(=O)C1*` (repeat unit) yielded a glass transition temperature of 212.00 °C.

The compound `*CC/C=C(/*)c1ccccc1` (repeat unit) came in with a glass transition temperature of 39.50 °C.

Consider `*CC1(C)CC(N2C(=O)c3ccc(-c4ccc5c(c4)C(=O)N(*)C5=O)cc3C2=O)CC(C)(C)C1` (repeat unit), for which the glass transition temperature was 311.00 °C.

`*CC1(C)CC(N2C(=O)c3ccc(Oc4ccc5c(c4)C(=O)N(*)C5=O)cc3C2=O)CC(C)(C)C1` (repeat unit) registered a glass transition temperature of 266.00 °C.

`*CCC/C=C(/*)c1ccc(Cl)cc1` (repeat unit) gave a glass transition temperature of 16.00 °C.

On to `*Oc1ccc(/C(=C/c2cc(OC)c(/C=C(/c3ccc(*)cc3)c3ccc(C(F)(F)F)cc3)cc2OC)c2ccc(C(F)(F)F)cc2)cc1` (repeat unit), for which the glass transition temperature is 194.00 °C.

Compound `*c1ccc(-c2ccc(N3C(=O)c4ccc(-c5ccc6c(c5)C(=O)N(*)C6=O)cc4C3=O)cc2C(F)(F)F)c(C(F)(F)F)c1` (repeat unit) had a glass transition temperature of 323.8 ± 24 °C.

The compound `*c1ccc(C2(c3ccc(N4C(=O)C(c5ccccc5)=C(c5ccc(C6=C(c7ccccc7)C(=O)N(*)C6=O)cc5)C4=O)cc3)c3ccccc3-c3ccccc32)cc1` (repeat unit) yielded a glass transition temperature of 340.00 °C.

`*c1ccc(Cc2ccc(N3C(=O)c4ccc(-c5ccc6c(c5)C(=O)N(*)C6=O)cc4C3=O)cc2)cc1` (repeat unit) returned a glass transition temperature of 308.00 ± 6.8 °C.

Compound `*c1ccc(N2C(=O)CC(C3C=C(C)C4C(=O)N(*)C(=O)C4C3)C2=O)cc1` (repeat unit) registered a glass transition temperature of 327.00 °C.

For `*c1ccc(Oc2ccc(-n3c(=O)c4cc5c(=O)n(*)c(=O)c5cc4c3=O)cc2)cc1` (repeat unit), the glass transition temperature worked out at 385.00 ± 20 °C.

With `*c1ccc(Oc2ccc(N3C(=O)C4CCC(C5CCC6C(=O)N(*)C(=O)C6C5)CC4C3=O)cc2)cc1` (repeat unit), the glass transition temperature turned out to be 257.00 °C.

In the case of `*c1ccc(Oc2ccc(N3C(=O)CC(C4C=C(C)C5C(=O)N(*)C(=O)C5C4)C3=O)cc2)cc1` (repeat unit), the glass transition temperature was found to be 278.00 °C.

`*c1ccc(Oc2ccc(Oc3ccc(N4C(=O)C(c5ccccc5)=C(c5ccc(C6=C(c7ccccc7)C(=O)N(*)C6=O)cc5)C4=O)cc3)cc2)cc1` (repeat unit) gave a glass transition temperature of 267.00 °C.

`*c1ccc(Oc2ccc(Oc3ccc(N4C(=O)c5ccc(-c6ccc7c(c6)C(=O)N(*)C7=O)cc5C4=O)cc3)cc2)cc1` (repeat unit): the glass transition temperature is 278.00 ± 14 °C.

In turn, `*c1ccc(Oc2ccc(S(=O)(=O)c3ccc(Oc4ccc(N5C(=O)C6CCC(C7CCC8C(=O)N(*)C(=O)C8C7)CC6C5=O)cc4)cc3)cc2)cc1` (repeat unit) returned a glass transition temperature of 256.50 °C.

Compound `*c1ccc2c(c1)C(=O)N(c1ccc(-c3ccc(N4C(=O)c5ccc(C(*)(C(F)(F)F)C(F)(F)F)cc5C4=O)cc3C(F)(F)F)c(C(F)(F)F)c1)C2=O` (repeat unit) displayed a glass transition temperature of 327.00 ± 18 °C.

In turn, `*c1ccc2c(c1)C(=O)N(c1ccc(Oc3ccc(C(c4ccc(Oc5ccc(N6C(=O)c7ccc(C(*)(C(F)(F)F)C(F)(F)F)cc7C6=O)cc5)cc4)(C(F)(F)F)C(F)(F)F)cc3)cc1)C2=O` (repeat unit) yielded a glass transition temperature of 247.00 ± 16 °C.
